The source made the active and inactive calls. The rule behind the calls is not given here. A value given as a limit tells only on which side of the number the result lay.

This passage reports Activity results from ChEMBL document CHEMBL4002618, “Anticomplement triterpenoids from the roots of Ilex asprella” (2017).

The test system of test [1] is Erythrocyte. Description: Anticomplement activity in sheep erythrocytes assessed as inhibition of hemolysis by classical pathway after 30 mins of compound treatment in normal human serum with C9-depleted sera. The class given is functional, cell-based. Particulars: Ovis aries.
The test system of test [2] is Erythrocyte. Description: Anticomplement activity in sheep erythrocytes assessed as concentration required for 50% hemolytic inhibition by classic pathway preincubated for 10 mins with guinea pig serum followed by erythrocyte addition measured after 30 mins by spectrophotometer. Format: functional, Ovis aries.
Test [3] relates to Erythrocyte. Description: Anticomplement activity in sheep erythrocytes assessed as inhibition of hemolysis by classical pathway after 30 mins of compound treatment in normal human serum with C1q-depleted sera. Format: functional, cell-based. Particulars: Ovis aries.
The test system of test [4] is Erythrocyte. The test can be described thus: Anticomplement activity in sheep erythrocytes assessed as inhibition of hemolysis by classical pathway after 30 mins of compound treatment in normal human serum with C2-depleted sera. Format: functional, cell-based. Conditions: Ovis aries.
The subject of test [5] is Erythrocyte. The test can be described thus: Anticomplement activity in New Zealand White rabbit erythrocytes assessed as concentration required for 50% hemolytic inhibition by alternative pathway preincubated for 10 mins with normal human serum followed by erythrocyte addition measured after 30 mins by spectrophotometer. Format: functional, Oryctolagus cuniculus.
Test [6] concerns Erythrocyte. Description: Anticomplement activity in sheep erythrocytes assessed as inhibition of hemolysis by classical pathway after 30 mins of compound treatment in normal human serum with C5-depleted sera. Format: functional, cell-based. Conditions: Ovis aries.
For test [7], the system named is Erythrocyte. The test can be described thus: Anticomplement activity in sheep erythrocytes assessed as inhibition of hemolysis by classical pathway after 30 mins of compound treatment in normal human serum with C3-depleted sera. The class given is functional, cell-based. Particulars: Ovis aries.
For test [8], the system named is Erythrocyte. The test can be described thus: Anticomplement activity in sheep erythrocytes assessed as inhibition of hemolysis by classical pathway after 30 mins of compound treatment in normal human serum with C4-depleted sera. The class given is functional, cell-based. Particulars: Ovis aries.
Test [9] has as its system Erythrocyte. Description: Anticomplement activity in sheep erythrocytes assessed as inhibition of hemolysis by classical pathway by measuring hemolysis after 30 mins of compound treatment in normal human serum with C9-depleted sera relative to control. Set-up: scale not given: the % may be the effect or the level left. The class given is functional, Ovis aries.
Test [10] has as its system Erythrocyte. Description: Anticomplement activity in sheep erythrocytes assessed as inhibition of hemolysis by classical pathway by measuring hemolysis after 30 mins of compound treatment in normal human serum with C3-depleted sera relative to control. Format: functional, Ovis aries. Set-up: scale not given: the % may be the effect or the level left.
Test [11] concerns Erythrocyte. The test can be described thus: Anticomplement activity in sheep erythrocytes assessed as inhibition of hemolysis by classical pathway by measuring hemolysis after 30 mins of compound treatment in normal human serum with C4-depleted sera relative to control. Format: functional, Ovis aries. More on the design: scale not given: the % may be the effect or the level left.

Regarding `CC1(C)CC[C@]2(C(=O)O)CC[C@]3(COC(=O)/C=C/c4ccc(O)cc4)C(=CC[C@@H]4[C@@]5(C)CC[C@H](OC(=O)/C=C/c6ccc(O)cc6)C(C)(C)[C@@H]5CC[C@]43C)[C@@H]2C1`, the result in the test with Erythrocyte [1] and in the test on Erythrocyte [4] was inactive. Also, the Activity in the test on Erythrocyte [2] is 0.072 mg/mL; with Erythrocyte [5], 0.159 mg/mL. Also, the result in the test with Erythrocyte [3], in the test on Erythrocyte [6], in the test with Erythrocyte [7] and in the test with Erythrocyte [8] was Active.
For `COC(=O)[C@]12CCC(C)(C)C[C@H]1C1=CC[C@@H]3[C@@]4(C)CC[C@H](O)C(C)(C)[C@@H]4CC[C@@]3(C)[C@]1(COC(=O)/C=C/c1ccc(O)cc1)CC2`, the Activity in the test with Erythrocyte [9] was less than 18.3%; in the test on Erythrocyte [2], 0.094 mg/mL; in the test on Erythrocyte [5], 0.444 mg/mL; with Erythrocyte [10], less than 18.3%; in the test with Erythrocyte [11], less than 18.3%. For the same compound, the result in the test on Erythrocyte [3], with Erythrocyte [4] and with Erythrocyte [6] was inactive.
For the compound `CC1(C)CC[C@]2(C(=O)O)CC[C@]3(C)C(=CC[C@@H]4[C@@]5(C)CC[C@H](O[C@@H]6OC[C@H](O)[C@H](O)[C@H]6O)C(C)(C)[C@@H]5CC[C@]43C)[C@@H]2[C@@H]1O`, the outcome in the test on Erythrocyte [2] (Ovis aries) and in the test on Erythrocyte [5] (Oryctolagus cuniculus) was inactive.
On to `COC(=O)[C@]12CCC(C)(C)C[C@H]1C1=CC[C@@H]3[C@@]4(C)CC[C@H](O)C(C)(C)[C@@H]4CC[C@@]3(C)[C@]1(COC(=O)/C=C/c1ccc(O)c(O)c1)CC2`, for which the Activity is less than 18.3% with Erythrocyte [9]; 0.063 mg/mL in the test with Erythrocyte [2]; 0.089 mg/mL in the test with Erythrocyte [5]; less than 18.3% with Erythrocyte [10]; less than 18.3% in the test on Erythrocyte [11]. Further, the result in the test with Erythrocyte [3], in the test with Erythrocyte [4] and in the test with Erythrocyte [6] was inactive.
Consider `C[C@H]1[C@H](C)CC[C@]2(C(=O)O)CC[C@]3(C)C(=CC[C@@H]4[C@@]5(C)C[C@H](O)[C@H](O)[C@@](C)(CO)[C@@H]5CC[C@]43C)[C@H]12`, for which the Activity with Erythrocyte [2] amounted to 0.197 mg/mL; in the test with Erythrocyte [5], 0.212 mg/mL.
For the compound `COC(=O)[C@H]1O[C@@H](O[C@H]2CC[C@]3(C)[C@H]4CC=C5[C@H]6[C@](C(=O)O)(CC[C@H](C)[C@@]6(C)O)CC[C@@]5(C)[C@]4(C)CC[C@H]3C2(C)C)[C@H](O)[C@@H](O)[C@@H]1O`, the outcome with Erythrocyte [2] (Ovis aries) and in the test with Erythrocyte [5] (Oryctolagus cuniculus) was inactive.
As for `C[C@@H]1CC[C@]2(C(=O)O)CC[C@]3(C)C(=CC[C@@H]4[C@@]5(C)CC[C@H](O)C(C)(C)[C@@H]5CC[C@]43C)[C@@H]2[C@]1(C)O` [POMOLIC ACID], the Activity with Erythrocyte [2] is 0.101 mg/mL; in the test with Erythrocyte [5] it was 0.157 mg/mL.
Taken in the same sequence, the figures for `C=C1CC[C@@]23CC[C@]4(C)[C@@](OC2=O)([C@@H]3[C@H]1C)[C@H]1O[C@H]1[C@@H]1[C@@]2(C)C=C(O)C(=O)C(C)=C2[C@H](O)C[C@]14C` were 0.236 mg/mL and 0.656 mg/mL.
Taken in the same sequence, the figures for `C[C@H]1[C@H](C)CC[C@@]23CC[C@]4(C)[C@@](OC2=O)([C@H]13)[C@H]1O[C@H]1[C@@H]1[C@@]2(C)CC(=O)[C@H](O)[C@@H](C)[C@@H]2[C@H](O)C[C@]14C` were 0.592 mg/mL and 0.734 mg/mL.
On to `C[C@H]1CC[C@]2(C(=O)O[C@@H]3O[C@H](CO)[C@@H](O)[C@H](O)[C@H]3O)CC[C@]3(C)C(=CC[C@@H]4[C@@]5(C)CC[C@H](O[C@@H]6OC[C@H](O)[C@H](O)[C@H]6O)C(C)(C)[C@@H]5CC[C@]43C)[C@@H]2[C@]1(C)O`, for which the result in the test on Erythrocyte [2] (Ovis aries) and in the test on Erythrocyte [5] (Oryctolagus cuniculus) was inactive.
Regarding `C[C@@H]1CC[C@]2(C(=O)O[C@@H]3O[C@H](CO)[C@@H](O)[C@H](O)[C@H]3O)CC[C@]3(C)C(=CC[C@@H]4[C@@]5(C)CC[C@H](O)C(C)(C)[C@@H]5CC[C@]43C)[C@@H]2[C@]1(C)O`, the outcome with Erythrocyte [2] (Ovis aries) and in the test with Erythrocyte [5] (Oryctolagus cuniculus) was inactive.
For the compound `C=C1[C@@H](O)[C@H](O)C[C@]2(C)[C@H]3C=C[C@]45OC(=O)[C@@]6(CC[C@@H](C)[C@H](C)[C@H]64)CC[C@@]5(C)[C@]3(C)CC[C@@H]12` [ILEKUDINOL A], the Activity was found to be 0.248 mg/mL in the test on Erythrocyte [2] and 0.658 mg/mL in the test with Erythrocyte [5].
Turning to `C=C1[C@@H](O)[C@H](O)C[C@]2(C)[C@H]3[C@@H]4O[C@@H]4[C@]45OC(=O)[C@@]6(CC[C@@H](C)[C@H](C)[C@H]64)CC[C@@]5(C)[C@]3(C)CC[C@@H]12` [ULMOIDOL], the Activity in the test with Erythrocyte [2] turned out to be 0.429 mg/mL; in the test on Erythrocyte [5], 0.794 mg/mL.
Take `C[C@@H]1CC[C@]2(C(=O)O)CC[C@]3(C)C(=CC[C@@H]4[C@@]5(C)CC[C@H](O[C@@H]6OC[C@H](O)[C@H](O)[C@H]6O)C(C)(C)[C@@H]5CC[C@]43C)[C@@H]2[C@]1(C)O`: the result in the test on Erythrocyte [2] (Ovis aries) and in the test with Erythrocyte [5] (Oryctolagus cuniculus) was inactive.
Consider `COC(=O)[C@]12CC[C@@H](C)[C@H](C)[C@H]1C1=CC[C@@H]3[C@@]4(C)CC[C@H](O)C(C)(C)[C@@H]4CC[C@@]3(C)[C@]1(COC(=O)/C=C/c1ccc(O)c(O)c1)CC2`, for which the Activity in the test with Erythrocyte [9] was less than 18.3%; in the test on Erythrocyte [2] it was 0.058 mg/mL; in the test with Erythrocyte [5], 0.08 mg/mL; in the test on Erythrocyte [10], less than 18.3%; with Erythrocyte [11], less than 18.3%. Moreover, the outcome with Erythrocyte [3], with Erythrocyte [4] and in the test on Erythrocyte [6] was inactive.
With `C[C@@H]1CC[C@]2(C(=O)O)CC[C@]3(C)C(=CC[C@@H]4[C@@]5(C)CC[C@H](O)[C@@](C)(CO)[C@@H]5CC[C@]43C)[C@@H]2[C@]1(C)O` [ROTUNDIC ACID], the Activity is 0.19 mg/mL in the test on Erythrocyte [2] and 0.341 mg/mL with Erythrocyte [5].
Consider `CC(=O)O[C@H]1CC[C@]2(C)[C@H]3CC=C4[C@@H]5[C@@H](C)[C@H](C)CC[C@]5(CO)CC[C@@]4(C)[C@]3(C)CC[C@H]2C1(C)C`, for which the Activity in the test with Erythrocyte [2] worked out at 0.46 mg/mL. Also, the result in the test on Erythrocyte [5] (Oryctolagus cuniculus) was inactive.
Regarding `C[C@H]1CC[C@]2(C(=O)O[C@@H]3O[C@H](CO)[C@@H](O)[C@H](O)[C@H]3O)CC[C@]3(C)C(=CC[C@@H]4[C@@]5(C)CC[C@H](O[C@@H]6OC[C@@H](O)[C@H](O)[C@H]6O)C(C)(C)[C@@H]5CC[C@]43C)[C@@H]2[C@]1(C)O`, the outcome with Erythrocyte [2] (Ovis aries) and in the test on Erythrocyte [5] (Oryctolagus cuniculus) was inactive.
As for `C=C1[C@@H](O)[C@H](O)C[C@]2(C)[C@H]3CC=C4[C@@H]5CC(C)(C)CC[C@]5(C(=O)O)CC[C@@]4(C)[C@]3(C)CC[C@@H]12`, the outcome in the test on Erythrocyte [1], in the test on Erythrocyte [3] and in the test on Erythrocyte [4] was Active. Further, the Activity in the test on Erythrocyte [2] is 0.09 mg/mL; with Erythrocyte [5], 0.308 mg/mL.
Take `COC(=O)[C@H]1O[C@@H](O[C@H]2CC[C@@]3(C)[C@@H](CC[C@]4(C)[C@@H]3CC=C3[C@H]5[C@](C(=O)O)(CC[C@@H](C)[C@@]5(C)O)CC[C@]34C)[C@]2(C)CO)[C@H](O)[C@@H](O)[C@@H]1O`: the result in the test on Erythrocyte [2] (Ovis aries) and in the test on Erythrocyte [5] (Oryctolagus cuniculus) was inactive.
